Test results as given in patent publication US5538985A, “Pyrrolidinone derivatives” (Mitsui Toatsu Chemicals, Inc., priority 1994, dated 1996).

molecular target: T1, α1 receptor (Rattus norvegicus, UniProt Q9R0C9); test: radioreceptor assay (α1 [sic] receptor) with 3H-(+)pentazocine in rat whole brain homogenate (Pharmacological Test 1); assay type: binding; settings: 3H-(+)pentazocine 5 nM, rat whole brain except cerebellum and medulla, 2 hours
T1 construct: whole brain of a rat except for the cerebellum and medulla; from tissue; host or cells: rat whole brain except cerebellum and medulla, homogenate
Protocol: By modifying the Vilner et al. method [B. J. Vilner and W. D. Bowen: Mechanisms for Neuromodulation and neuroprotection? in Multiple Sigma and PCP Receptor Ligands, pp341 (1992) NPP Books], a radioreceptor assay was conducted with respect to the α1 receptor. A homogenate (10 mg/ml) of the whole brain of a rat except for the cerebellum and medulla was incubated together with each test drug and ^3 H-ligand [5 nM of ^3 H-(+)pentazocine (NEN)] for 2 hours. Brain tissue was filtered under suction through a glass fiber filter paper ("GF/B", trade name; manufactured by Whatman) using a cell harvester ("LL-12", trade name; manufactured by Brandel) and was washed twice, each with 3 ml of a buffer solution. The glass fiber filter paper was placed in a vial, to which 3.5 ml of a scintillator ("ACSII" trade name; product of Amersham International plc) were added. After being left for 10 hours, the amount of ^3 H-ligand bound to the receptor was measured by a liquid scintillation counter. Incidentally, (+)-pentazocine (10 μM) was used for the measurement of a blank.
Binding rates of ^3 H-ligand to the receptor at individual concentrations of each test drug were plotted to draw a graph by assuming that the binding rate without addition of the test drug was 100% and that when the blank substance was added was 0%. A concentration of the test drug, which would give a binding rate of 50%, was then determined and recorded as an IC50 value. From the IC50 value, the Ki value was determined in accordance with the following formula: [formula] KD represents the dissociation constant between ^3 H-ligand and the receptor, and was obtained by the Scatchard plotting of the bonding to the receptor when the concentration of ^3 H-ligand was varied.

T1 sequence (Q9R0C9 whole entry): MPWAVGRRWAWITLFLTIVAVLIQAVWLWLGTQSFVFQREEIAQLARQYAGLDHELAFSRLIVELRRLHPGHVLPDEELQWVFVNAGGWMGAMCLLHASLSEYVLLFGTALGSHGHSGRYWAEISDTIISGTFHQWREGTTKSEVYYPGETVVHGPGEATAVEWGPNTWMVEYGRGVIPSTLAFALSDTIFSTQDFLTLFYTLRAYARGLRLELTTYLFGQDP

Ki | Compound
3.8 nM | CCC1CCN(CC2CCN(c3ccc(Cl)cc3)C2=O)CC1 (stereo not shown) [Example 29]
2.1 nM | CC1CCN(CC2CCN(c3cccc(C(F)(F)F)c3)C2=O)CC1 (stereo not shown) [Example 11]
3.6 nM | COc1cccc(N2CCC(CN3CCC(C)CC3)C2=O)c1 (stereo not shown) [Example 43]
1.3 nM | O=C1C(CN2CCCCC2)CCN1c1cccc(Br)c1 (stereo not shown) [Example 13]
3.5 nM | O=C1C(CN2CCCCC2)CCN1c1cccc(C(F)(F)F)c1 (stereo not shown) [Example 20]
5.9 nM | COc1cccc(N2CCC(CN3CCCCCC3)C2=O)c1 (stereo not shown) [Example 44]
4.7 nM | O=C1C(CN2CCCCC2)CCN1c1cccc(Cl)c1 (stereo not shown) [Example 12]
3.2 nM | O=C1C(CN2CCCCCC2)CCN1c1cccc(C(F)(F)F)c1 (stereo not shown) [Example 3]
7 nM | CC1CCN(CC2CCN(c3ccc(Cl)c(Cl)c3)C2=O)CC1 (stereo not shown) [Example 33]
2.3 nM | CC1CCN(CC2CCN(c3ccc(C(C)(C)C)cc3)C2=O)CC1 (stereo not shown) [Example 27]
8 nM | COC1CCN(CC2CCN(c3ccc(Cl)cc3)C2=O)CC1 (stereo not shown) [Example 75]

Continued, compound first:

Compound | Ki
O=C1C(CN2CCCCCC2)CCN1c1ccc(Cl)cc1 (single isomer, unassigned; (-)) [Example 93 (-) form, (-) 1-(4-Chlorophenyl)-3-(hexahydro-1H-azepin-1-ylmethyl)-2-pyrrolidinone] | 1.5 nM
O=C1C(CN2CCCCCC2)CCN1c1ccc(Cl)cc1 (stereo not shown) [Example 82] | 2 nM
O=C1C(CN2CCCCC2)CCN1c1ccc(C(F)(F)F)cc1 (stereo not shown) [Example 74] | 4.4 nM
O=C1C(CN2CCCCC2)CCN1c1ccc(Cl)c(Cl)c1 (stereo not shown) [Example 2] | 2.8 nM
CC1CCN(CC2(C)CCN(c3ccc(Cl)cc3)C2=O)CC1 (stereo not shown) [Example 49] | 3 nM
O=C1C(CN2CCCCCC2)CCN1c1ccc(Cl)cc1 (stereo not shown) [Example 1] | 2.7 nM
O=C1C(CN2CCCCCCC2)CCN1c1ccc(Cl)c(Cl)c1 (stereo not shown) [Example 31] | 1.2 nM

test system: mAMP-induced hyperkinesia; test: inhibition of methamphetamine (mAMP)-induced hyperkinesia in mice (Pharmacological Test 2); assay type: in vivo, mice (ddy male); settings: Mus musculus, sc, 0.5 h; test drug 10 mg/kg peritoneally; methamphetamine 1.5 mg/kg subcutaneously; motion measured for 30 minutes; read-out: Inhibition rate of mAMP-induced hyperkinesia (%)
Protocol: Using mice, antipsychotic activities were investigated in terms of hyperkinesia induced by methamphetamine. For the experiment, ten 5 weeks-old ddy male mice (NIHON S.L.C K.K.) were used per each group. Immediately after each mouse was peritoneally administered at 10 mg/kg with the corresponding test drug, the mouse was placed in a photocell cage for measurement. The amount of motion was measured for 30 minutes (the first measurement: this was recorded as the action of the test drug for the active movement). Thereafter, the mouse was once taken out of the cage and subcutaneously administered at 1.5 mg/kg with methamphetamine. The mouse was then returned to the same cage and the amount of motion was measured for 30 minutes. An average amount of motion of each group was determined based on the amounts of motion after the administration of methamphetamine (mAMP) as obtained by the second measurement, and the inhibition rate (%) of hyperkinesia was calculated in accordance with the following formula: [formula]
The group to which the test drug was administered: the test drug+methamphetamine
Control group: vehicle+methamphetamine
Normal group: vehicle+saline

Compound | inhibition in vivo at 10 mg/kg
O=C1C(CN2CCC(O)CC2)CCN1c1ccc(Cl)cc1 (stereo not shown) [Example 40] | 73%
O=C1C(CN2CCCCC2)CCN1c1ccc(Cl)cc1 (stereo not shown) [Example 23] | 54%
O=C1C(CN2CCCCCC2)CCN1c1ccc(-c2ccccc2)cc1 (stereo not shown) [Example 70] | 66%
O=C1C(CN2CCCCCC2)CCN1c1ccc(F)cc1 (stereo not shown) [Example 53] | 62%
CC1CCN(CC2CCN(c3ccc(Cl)cc3)C2=O)CC1 (stereo not shown) [Example 26] | 56%
CC1CCN(CC2CC(=O)N(c3ccc(Cl)cc3)C2)CC1 (stereo not shown) [Example 81] | 53%
O=C1C(CN2CCCC2)CCN1c1ccc(Cl)cc1 (stereo not shown) [Example 36] | 56%
O=C1CC(CN2CCCCC2)CN1c1ccc(F)cc1 (stereo not shown) [Example 37] | 62%
CC1CC(C)CN(CC2CCN(c3ccc(Cl)cc3)C2=O)C1 (stereo not shown) [Example 56] | 76%
O=C1C(CN2CCCCCC2)CCN1c1ccc(Cl)cc1 (stereo not shown) [Example 1] | 55%
O=C1C(CN2CCCCCC2)CCN1c1ccc(C2CCCCC2)cc1 (stereo not shown) [Example 64] | 57%
CCc1ccc(N2CC(CN3CCCCC3)CC2=O)cc1 (stereo not shown) [Example 39] | 54%
CC1CCN(CC2CCN(c3ccc(Cl)c(Cl)c3)C2=O)CC1 (stereo not shown) [Example 33] | 53%
COc1ccc(N2CCC(CN3CCC(C)CC3)C2=O)cc1 (stereo not shown) [Example 41] | 53%
CC(=O)C1CCN(CC2CCN(c3ccc(Cl)cc3)C2=O)CC1 (stereo not shown) [Example 45] | 51%
COC1CCN(CC2CCN(c3ccc(Cl)cc3)C2=O)CC1 (stereo not shown) [Example 75] | 66%
